Laboratory results taken from article PMC3021963 (ChemMedChem, 2010).

Tests used:
Assay type in all cases: biochemical
[1] = molecular target: T1, MbtI (Mycobacterium tuberculosis, UniProt P9WFX1); test: continuous fluorescence assay of MbtI; conditions: for Fluorescence Assay Hill: Table 1, Hill slope of concentration-response plot
[2] = molecular target: T1, MbtI; test: HPLC end-point assay of MbtI; conditions: for HPLC Assay Hill: Table 1, Hill slope of concentration-response plot
[3] = molecular target: T1, MbtI
[4] = Table 3, class III benzimidazole-2-thiones
[5] = IC50, Table 2, class II diarylsulfones
[6] = Table 2, class II diarylsulfones
[7] = Table 3, class III benzimidazole-2-thiones, synthetically prepared compounds

T1 sequence (P9WFX1 whole entry, looked up): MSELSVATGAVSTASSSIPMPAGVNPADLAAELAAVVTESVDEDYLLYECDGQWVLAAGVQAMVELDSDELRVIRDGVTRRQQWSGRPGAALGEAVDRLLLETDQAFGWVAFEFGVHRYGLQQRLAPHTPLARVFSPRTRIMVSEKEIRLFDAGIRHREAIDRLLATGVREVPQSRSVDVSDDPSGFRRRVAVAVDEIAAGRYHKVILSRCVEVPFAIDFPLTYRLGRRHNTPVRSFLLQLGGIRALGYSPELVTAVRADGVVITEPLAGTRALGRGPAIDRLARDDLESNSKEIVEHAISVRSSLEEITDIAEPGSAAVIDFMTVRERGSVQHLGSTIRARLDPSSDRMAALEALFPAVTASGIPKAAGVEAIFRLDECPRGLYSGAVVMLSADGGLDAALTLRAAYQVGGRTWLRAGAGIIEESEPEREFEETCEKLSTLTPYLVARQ

With `Cn1c(=S)[nH]c2ccccc21` [Compound 40, N-methylbenzimidazole-2-thione] the “change in potency relative to parent compound 4” value [1] was “six- to nine-fold decreases in potency” and the “Hill Slope” value [1, 4] was 1.20.
With `CC(=O)NS(=O)(=O)c1cccc(S(=O)(=O)c2ccc(Cl)c(Cl)c2)c1` [Compound 32, N-[3-(3,4-Dichlorophenylsulfonyl)phenylsulfonyl]acetamide] the “MbtI inhibition (in words)” value [1] was “completely inactive” and the IC50 [1, 5] was > 200 µM.
For `NS(=O)(=O)c1cccc(S(=O)(=O)c2ccc(Cl)cc2)c1` [Compound 26, 3-(4-Chlorophenylsulfonyl)benzenesulfonamide], the “MbtI inhibition (in words)” value [1] was “complete loss of activity” and the IC50 [1, 5] was > 200 µM.
For `O=S(=O)(c1cccc(S(=O)(=O)N2CCOCC2)c1)c1ccc(Cl)c(Cl)c1` [Compound 31, N-[3-(3,4-Dichlorophenylsulfonyl)phenylsulfonyl]morpholine], the IC50 [1, 6] was > 200 µM.
`CSc1nc2ccccc2[nH]1` [Compound 46, 2-thiomethylbenzimidazole] was tested, and the “MbtI inhibition (in words)” value [1] was “completely inactive” and the IC50 [1, 7] was > 200 µM.
With `NS(=O)(=O)c1cccc(S(=O)(=O)c2ccccc2)c1` [Compound 27, 3-(Phenylsulfonyl)benzenesulfonamide] the “MbtI inhibition (in words)” value [1] was “complete loss of activity” and the IC50 [1, 5] was > 200 µM.
With `CC(=O)n1c(=S)[nH]c2ccccc21` [Compound 4, 1-Acetylbenzimidazole-2-thione] the “Fluorescence Assay Hill” value [1] was 1.71, the “Hill Slope” value [1, 4] was 1.00 and the IC50 [2] was 5.16 ± 0.49 µM. For the same compound, the “HPLC Assay Hill” value [2] was 1.23, the Ki [3] was 9.7 µM and the α value ([3]; noncompetitive inhibition model) was 1. The mode of inhibition ([3]; with respect to chorismate) was “noncompetitive inhibition”.
For `CC(=O)n1c(=S)[nH]c2cc(C)ccc21` [Compound 41, 1-Acetyl-5/6-methylbenzimidazole-2-thione], the “change in potency relative to parent compound 4” value [1] was “no impact on potency was observed”, the “Hill Slope” value [1, 4] was 1.20 and the IC50 [1, 7] was 7.6 ± 0.4 µM.
For `S=c1[nH]c2ccccc2[nH]1` [Compound 34, benzimidazole-2-thione], the “change in potency relative to parent compound 4” value [1] was “six- to nine-fold decreases in potency” and the “Hill Slope” value [1, 4] was 0.90.
For `CC(=O)N1C(=O)Cc2ccccc21` [Compound 43, 1-Acetyl-2-oxindole], the “MbtI inhibition (in words)” value [1] was “completely inactive”.
With `CC(=O)n1cnc2ccccc21` [Compound 44, 1-Acetylbenzimidazole] the “MbtI inhibition (in words)” value [1] was “completely inactive”.
In the case of `NS(=O)(=O)c1cccc(S(=O)(=O)c2ccc(Cl)c(Cl)c2)c1` [Compound 8, 3-(3,4-Dichlorophenylsulfonyl)benzenesulfonamide], the IC50 [1, 5] is reported as 35 µM, the “Fluorescence Assay Hill” value [1] is reported as 0.85 and the “Hill Slope” value [1, 6] is reported as 0.85. For the same compound, the IC50 [2] was 49.2 ± 11.6 µM and the “HPLC Assay Hill” value [2] was 0.7.
`Nc1ccc(S(=O)(=O)c2ccc(N)cc2)cc1` [Compound 33, 4,4′-diaminodiphenylsulfone, reference compound] showed an IC50 [1, 5] of 118 ± 19 µM.
For `CNS(=O)(=O)c1cccc(S(=O)(=O)c2ccccc2)c1` [Compound 28, N-Methyl-3-(phenylsulfonyl)benzenesulfonamide], the IC50 [1, 5] was > 200 µM.
For `O=S(=O)(NCc1ccccc1)c1cccc(S(=O)(=O)c2ccc(Cl)c(Cl)c2)c1` [Compound 30, N-Benzyl-3-(3,4-dichlorophenylsulfonyl)benzenesulfonamide], the IC50 [1, 5] was > 200 µM.
With `CC(=O)n1c(=S)oc2ccccc21` [Compound 42, 1-Acetylbenzoxazole-2-thione] the “change in potency relative to parent compound 4” value [1] was “about twofold less potent”, the “Hill Slope” value [1, 4] was 1.10 and the IC50 [1, 7] was 21.8 ± 1.4 µM.
In the case of `CC(=O)n1cc[nH]c1=S` [Compound 47, 1-Acetylimidazole-2-thione], the “MbtI inhibition (in words)” value [1] is reported as “abolished all activity”.
`CC(=O)n1c(=O)[nH]c2ccccc21` [Compound 45, 1-Acetylbenzimidazole-2-one] was tested, and the “MbtI inhibition (in words)” value [1] was “completely inactive”.
For `CNS(=O)(=O)c1cccc(S(=O)(=O)c2ccc(Cl)c(Cl)c2)c1` [Compound 29, 3-(3,4-Dichlorophenylsulfonyl)-N-methylbenzenesulfonamide], the IC50 [1, 5] was > 200 µM.
